Values quoted from earlier work in Sander's compilation of Henry's law constants (doi:10.1039/p29940001777).

Assay: Henry solubility constant Hcp at 298.15 K (mol/(m3 Pa))
Conditions: reference: Abraham et al. (1994a); cited value

SMILES | Henry solubility constant Hcp
Nc1ccccc1Cl [1-amino-2-chlorobenzene] | 1.6
Nc1cccc(Cl)c1 [1-amino-3-chlorobenzene] | 7.5
Nc1ccc(Cl)cc1 [1-amino-4-chlorobenzene] | 8.6
Cc1cccc(O)c1C [1-hydroxy-2,3-dimethylbenzene] | 13
Cc1ccc(O)c(C)c1 [1-hydroxy-2,4-dimethylbenzene] | 10
Cc1ccc(C)c(O)c1 [1-hydroxy-2,5-dimethylbenzene] | 8.8
COc1ccccc1O [1-hydroxy-2-methoxybenzene] | 5
Cc1cc(C)cc(O)c1 [1-hydroxy-3,5-dimethylbenzene] | 16
CCc1cccc(O)c1 [1-hydroxy-3-ethylbenzene] | 16
COc1cccc(O)c1 [1-hydroxy-3-methoxybenzene] | 170
CCc1ccc(O)cc1 [1-hydroxy-4-ethylbenzene] | 13
CCCc1ccc(O)cc1 [1-hydroxy-4-propylbenzene] | 8.6
Nc1cccc2ccccc12 [1-naphthylamine] | 88
Cc1cccc(C)c1N [2,6-dimethylbenzenamine] | 2.7
CCOCCO [2-ethoxyethanol] | 33
Oc1ccccc1Cl [2-hydroxychlorobenzene] | 0.88
Oc1ccccc1F [2-hydroxyfluorobenzene] | 3.1
Oc1ccccc1I [2-iodophenol] | 14
Cc1ccccc1N [2-methylbenzenamine] | 4.6
Nc1ccc2ccccc2c1 [2-naphthylamine] | 120
Nc1ccccc1[N+](=O)[O-] [2-nitrobenzenamine] | 100
O=[N+]([O-])c1ccccc1O [2-nitrophenol] | 0.92

SMILES | Henry solubility constant Hcp
OCCc1ccccc1 [2-phenylethanol] | 39
CC(=O)c1cccnc1 [3-acetylpyridine] | 460
N#Cc1cccnc1 [3-cyanopyridine] | 36
O=Cc1cccnc1 [3-formylpyridine] | 65
COc1cccc(N)c1 [3-methoxy-benzenamine] | 90
Nc1cccc([N+](=O)[O-])c1 [3-nitrobenzenamine] | 1200
OCCCc1ccccc1 [3-phenyl-1-propanol] | 48
CC(=O)c1ccc(C)cc1 [4'-methylacetophenone] | 1.1
CC(=O)c1ccncc1 [4-acetylpyridine] | 160
Cc1cc(O)ccc1Cl [4-chloro-3-methylphenol] | 39
N#Cc1ccncc1 [4-cyanopyridine] | 11
O=Cc1ccncc1 [4-formylpyridine] | 56
Nc1ccc([N+](=O)[O-])cc1 [4-nitrobenzenamine] | 14000
OCc1ccccc1 [(hydroxymethyl)-benzene] | 29
CNc1ccccc1 [(methylamino)-benzene] | 1.1
CN1CCCCC1 [N-methylpiperidine] | 0.24
NC(=O)c1ccccc1 [benzamide] | 47000
N#Cc1ccccc1 [benzenenitrile] | 0.5
c1ccc2ncccc2c1 [benzo[b]pyridine] | 6.4
CCOC(=O)c1ccccc1 [ethyl benzoate] | 0.19
COC(=O)c1ccccc1 [methyl benzoate] | 0.31
CCOP(=O)(OCC)OCC [triethylphosphate] | 140
